Experiments:
[1] = tested on: mutant (TGA-containing) Apo CII-luc fusion reporter in FG293 cells; test: In vitro luciferase assay: suppression of translational termination in FG293 cells transduced with mutant Apo CII-luc lentiviral vector; type: cell-based, human; conditions: for ability to induce luciferase expression (suppression of translation termination codons): 0 to 1000 μg/ml, mutant luc fusion; for fold of induction: 5 μg/ml; for % of wild-type luc activity: 200 μg/ml
Description: FG 293 cells were infected with viral supernatants at a multiplicity of infection (MOI) of 10. After 72 hours, cells were then split into six well plates, exposed to various concentrations of G1418 for 48 hours, and lysed. Protein extracts were then assayed for luciferase expression using the Promega Luciferase Assay System.
(§1) To facilitate quantitative measurement of both spontaneous read-through of specific termination codon configurations and the ability of specific antibiotics to suppress translational termination, a luciferase (luc) reporter gene was generated in which the first five codons of either WT mutant MIA-containing) Apo CII sequences were fused to luc coding sequences, and the resulting sequences were introduced into a standard lentiviral vector (FIG. 1B). High-titer virus generated from the vectors was used to infect human FG293 cells at a multiplicity of infection (MOI) of 10, so that virtually 100% of the cells would be stably transduced. Cells were then split into six well plates, exposed to varying concentrations of the aminoglycoside (G418) for 48 hours, and then lysed and assayed for luc expression. […] In contrast, cells transduced by vectors encoding the mutant Apo CII-luc expressed only low levels of luc in the absence of G418 (approximately 1.2% the activity of the wild type), but could be induced to strongly express luc by the addition of the antibiotic (FIG. 2B). […] The efficiency of suppression of translational termination was extremely high (over 70% of the level of wild-type reporter expression observed in the absence of the nonsense codon).
as §1, with “(TGA-containing)” for “MIA-containing)”
One of the expected characteristics of the gene regulation system described here is the ability to rapidly achieve induction of transgene expression, since (as indicated above) transcription is constitutive and therefore induction of gene expression should depend only upon the restoration of fall translation of the transgene coding sequences. To address this issue, we employed the transduced cells described above, and measured the level of reporter activity after G418 administration (200 μg/ml) as a function of time.
Compounds were tested in vitro using stable cell lines generated via the infection of FG293 cells with lentiviral vectors carrying either WT or mutant Apo CII luc sequences. The aminoglycosides were tested over a concentration range from 0 to 1000 μg/ml.

[2] = Acute toxicity at concentrations used to regulate gene expression in cell lines and animals
Text: Overall, the system described here represents a remarkably simple means of controlling the expression of genes in mammalian cells that should have immediate experimental applications. While the range of inducibility obtainable with the system (in some cases over 60 fold) is considerably more limited than that of gone regulation systems based on the control of transcription or RNA self-cleavage, the ability to fine-tune the basal and induced levels of gene expression via use of specific termination codons and adjacent sequences may mitigate this limitation in many experimental situations. […] Similarly, others have shown that G418 can be used at relatively non-toxic doses to suppress nonsense mutations in cell lines and in animal models of inherited disease (25, 35). […] The availability of such molecules for experimental studies in the future should further expand the utility of translation-based gene regulation strategies.

[3] = tested on: mutant Apo CII-luc in hematopoietic cells; test: In vivo luc induction in murine bone marrow transplantation model (transduced hematopoietic stem cells); design: species or system mice; conditions: 1.5 mg/day for 3.5 days, four mutant luc animals
Description: Purified HSC were obtained by isolating bone marrow SP cells using fluorescence activated cell sorting after Hoechst staining as previously described (10), with some modifications. Briefly, femurs and tibias from mice were homogenized, and the bone marrow cells were filtered through 70 μm nylon mesh and washed in PBS containing 2% FCS and 0.5% Sodium Azide. Cells were then resuspended in HBSS containing 2% FCS, 10 mM Hepes buffer and antibiotics (all from Gibco, Grand Island, N.Y.) and 8.8 μg/ml Hoechst 33342 (Molecular Probes, Eugene, Oreg.) at a cell concentration of 5×10^6/ml. Following incubation for 90 min at 37° C., cells were washed once and further purified by using a gradient of Ficoll-Paque™ Plus (Amersham Biosciences AB, Uppsala) to remove red blood cells. Purified marrow cells were then sorted using a MoFlo high speed cell sorter (DakoCytomation, Fort Collins, Col.). Except when specified, cells were kept on ice during the entire procedure. […]
Prior to imaging, mice were anaesthesized and injected with 150 μl luciferin (30 mg/ml) (Xenagen, Alameda, Calif.). […] Photon output was quantified at the plateau of the time-course using the Living Image software. Induction in fold was calculated based on the photon output in the animals before and after drug treatment. […]

[4] = tested on: mutant Apo CII-luc in murine lung tissue; test: In vivo luc induction in murine lung after intratracheal delivery of lentiviral vector, bioluminescent imaging; conditions: 1.5 mg daily, 4 days, average of five mice
Description: For intratracheal infections, nude mice were anaesthesized and then 100 μl of concentrated virus was delivered upon normal inhalation via a blunt-ended 16-gauge needle inserted in such a way to depress the tongue.
Prior to imaging, mice were anaesthesized and injected with 150 μl luciferin (30 mg/ml) (Xenagen, Alameda, Calif.). A series of bioluminescent images were then taken for up to 30 minutes using the Xenogen IVIS imager. Photon output was quantified at the plateau of the time-course using the Living Image software. Induction in fold was calculated based on the photon output in the animals before and after drug treatment.
To further establish the general applicability of the gene […] system, we next asked whether gene regulation at the level of translation could be readily accomplished in the in vivo setting. In a first animal model, intratracheal delivery (see Materials and Methods) of a lentiviral vector carrying WT or mutant Apo CII-luc sequences was utilized in order to assess the ability to regulate luc expression in murine lung tissue via aminoglycoside administration. Five days post transduction, prior to administration of aminoglycoside, mice were imaged for luc expression using the Xenogen IVIS non-invasive bioluminescent imager (29). […]

[5] = mice; cited from earlier work

## NC[C@H]1O[C@H](O[C@H]2[C@H](O)[C@@H](O[C@H]3O[C@H](CO)[C@@H](O)[C@H](N)[C@H]3O)[C@H](N)C[C@@H]2N)[C@H](N)C[C@@H]1O [tobramycin]
[1]; 48 hours, FG293 cells
  ability to induce luciferase expression (suppression of translation termination codons): only weak induction

## CCC(C)(C)c1ccc(OCC(=O)Nc2cccc(C(=O)O)c2)cc1 [3-{2-[4-(1,1-dimethyl-propyl)-phenoxyl]acetylamino}-benzoic acid]
[1]; FG293 cells
  fold of induction: about 24%

## CN[C@@H]1[C@@H](O)[C@@H](O[C@@H]2[C@@H](O)[C@H](O[C@H]3O[C@H]([C@@H](C)O)[C@@H](O)[C@H](O)[C@H]3N)[C@@H](N)C[C@H]2N)OC[C@]1(C)O [G418]
[2]
  acute toxicity at concentrations used: not acutely toxic
[1]; 1 hour post induction
  % of wild-type luc activity: 1.4%
[1]; 6 hours post induction
  % of wild-type luc activity: 6.1%
[1]; 12 hours post induction
  % of wild-type luc activity: 25.3%
[1]; 24 hours post induction
  % of wild-type luc activity: 38.1%
[1]; 48 hours post exposure
  % of wild-type luc activity: 51.3%
[1]; 300 μg/ml, 48 hours, FG293 cells
  efficiency of suppression of translational termination, % of wild-type reporter expression: over 70%
[1]; 300 μg/ml, 48 hours, FG293 cells, mutant Apo CII-luc
  increase in reporter (luc) expression relative to the uninduced state, maximum induction: approximately 60 fold
[1]; Homo sapiens, 48 h, read-out: fold induction of luc (maximal induction)
  fold induction at 200 µg/mL: 60
[3]
  induced level, % of expression in WT luc mice: ~51%
[3]; Mus musculus, Hematopoietic stem cell, 84 h, read-out: average fold induction of luc expression
  fold induction at 1.5 mg: 65
[4]
  luciferase expression, % of level in WT luc mice: 27%

## CC(C)(C)c1ccc(OCC(=O)Nc2cccc(C(=O)O)c2)cc1 [3-[2-(4-tert-butyl-phenoxyl)-acetylamino]-benzoic acid]
[1]; FG293 cells
  fold of induction: about 14%

## gentamycin sulfate
[5]
  effective dosage: 17 mg/kg

## NC[C@@H]1O[C@H](O[C@H]2[C@@H](O)[C@H](O[C@@H]3[C@@H](O)[C@H](N)C[C@H](N)[C@H]3O[C@H]3O[C@H](CO)[C@@H](O)[C@H](O)[C@H]3N)O[C@@H]2CO)[C@H](N)[C@@H](O)[C@@H]1O [paromomycin]
[1]; 48 hours, FG293 cells
  ability to induce luciferase expression (suppression of translation termination codons): only weak induction

## gentamicin
[1]; 48 hours, FG293 cells
  ability to induce luciferase expression (suppression of translation termination codons): only weak induction

## NCC[C@H](O)C(=O)N[C@@H]1C[C@H](N)[C@@H](O[C@H]2O[C@H](CN)[C@@H](O)[C@H](O)[C@H]2O)[C@H](O)[C@H]1O[C@H]1O[C@H](CO)[C@@H](O)[C@H](N)[C@H]1O [amakacin]
[1]; 48 hours, FG293 cells
  ability to induce luciferase expression (suppression of translation termination codons): only weak induction

Reference: patent publication US11517630B2, “Methods and compositions for regulating gene expression” (Children's Medical Center Corporation, priority 2005, dated 2022)
